Experiments:
[1] = test system: miRNAs in diaphragm muscle of mdx mice; assay: qRT-PCR of individual miRNAs in diaphragm, validation set (4-month treatment, treadmill-run mdx mice); assay type: in vivo, mouse; conditions: 6 months of age, prednisolone 5 mg/kg, vamorolone 45 mg/kg; for expression of the other seven inflammatory miRNAs: P≤0.05
From the text: Archival muscle samples (diaphragm) from two separate preclinical studies were obtained, with each trial showing a significant benefit from both prednisolone and vamorolone drug treatments (23). Prednisolone was used because it is the active form of prednisone, the current DMD standard of care. The first, “discovery set” of diaphragm muscles was from a prophylactic trial design where 2-week old (postnatal day 15) mdx or wild type control mice received oral dosing for 6 weeks with vehicle (cherry syrup), prednisolone (5 mg/kg), or vamorolone (15 mg/kg) as previously reported (23). The second, “validation set” of diaphragm muscles was from an extended trial in older mice where mdx or wild type mice were subjected to treadmill running to unmask mild phenotypes. Mice in this validation set were treated with either vehicle, prednisolone (5 mg/kg) or vamorolone (45 mg/kg) for four months beginning at two months of age (23). At the endpoint of each trial, diaphragm muscles were harvested and frozen in liquid nitrogen-cooled isopentane.
Specific miRNAs were quantified in the validation set of samples using individual TaqMan assays specific for each miRNA (ThermoFisher; Carlsbad, Calif.) according to the manufacturer's protocol. Assay IDs used include 000468, 001346, 002455, 001280, 000528, 002352, 000464, 002509, and 002248. Total RNA was converted to cDNA using multiplexed RT primers and High Capacity cDNA Reverse Transcription Kit (ThermoFisher; Carlsbad, Calif.). The cDNA was pre-amplified using TaqMan PreAmp Master Mix (ThermoFisher; Carlsbad, Calif.). The miRNAs were then quantified using individual TaqMan assays on an ABI QuantStudio 7 real time PCR machine (Applied Biosystems; Foster City, Calif.).
In the discovery set experiments, levels of each miRNA were quantified in TaqMan low-density arrays using ThermoFisher Cloud software with the Relative Quantification Application (ThermoFisher; Carlsbad, Calif.) tool. Data was analyzed by ANOVA with post-hoc comparison of each group to the mdx vehicle-treated group. […] A P-value of P≤0.05 was set as the significance threshold, without adjustment for multiple comparisons. To reduce false-positive discovery in this setting, an evidence-based approach was used to identify efficacy associated miRNAs where 1) results from the multiple groups were cross-referenced, and 2) all candidate miRNAs identified in this discovery set were then assayed in a separate validation set of mice. For the validation set experiments, levels of each individual miRNA were assayed in samples from a second, independent preclinical trial in adult mdx mice. Data from individual TaqMan Assays was quantified using QuantStudio Real-Time PCR version 1.3 software (Applied Biosystems; Foster City, Calif.). […]

[2] = molecular target: T1, glucocorticoid receptor (GR) (Homo sapiens, UniProt P04150); conditions: cited from earlier work
T1 sequence (P04150 1-777): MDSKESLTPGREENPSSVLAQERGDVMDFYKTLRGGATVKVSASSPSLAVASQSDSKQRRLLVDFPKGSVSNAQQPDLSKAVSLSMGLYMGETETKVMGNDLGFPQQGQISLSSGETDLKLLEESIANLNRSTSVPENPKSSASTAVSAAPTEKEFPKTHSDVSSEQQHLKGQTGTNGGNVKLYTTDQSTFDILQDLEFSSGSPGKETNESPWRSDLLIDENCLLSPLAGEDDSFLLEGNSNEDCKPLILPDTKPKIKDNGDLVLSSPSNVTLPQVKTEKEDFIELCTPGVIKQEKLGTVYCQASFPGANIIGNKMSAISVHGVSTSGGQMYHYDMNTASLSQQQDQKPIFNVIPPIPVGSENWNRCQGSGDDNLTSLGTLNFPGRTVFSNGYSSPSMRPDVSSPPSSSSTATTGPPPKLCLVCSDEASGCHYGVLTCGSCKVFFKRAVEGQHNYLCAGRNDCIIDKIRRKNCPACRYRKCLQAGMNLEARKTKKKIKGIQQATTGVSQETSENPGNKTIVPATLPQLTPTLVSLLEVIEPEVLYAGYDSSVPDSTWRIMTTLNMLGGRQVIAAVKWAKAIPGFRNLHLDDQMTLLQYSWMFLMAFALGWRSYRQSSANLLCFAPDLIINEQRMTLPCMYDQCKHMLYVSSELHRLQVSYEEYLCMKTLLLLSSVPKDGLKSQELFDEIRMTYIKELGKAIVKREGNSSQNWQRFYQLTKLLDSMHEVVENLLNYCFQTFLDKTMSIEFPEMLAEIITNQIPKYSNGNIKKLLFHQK

[3] = preclinical mdx mouse and human Phase I trials; cited from earlier work

## C[C@]12C=CC(=O)C=C1CC[C@@H]1[C@@H]2[C@@H](O)C[C@@]2(C)[C@H]1CC[C@]2(O)C(=O)CO [prednisolone]
[1]
  response of miR-301a to drug treatment: did not respond to drug treatment
  expression of the other seven inflammatory miRNAs: significant decrease towards healthy wild type levels

## C[C@@H]1C[C@H]2[C@@H]3CCC4=CC(=O)C=C[C@]4(C)C3=CC[C@]2(C)[C@@]1(O)C(=O)CO [vamorolone]
[1]
  response of miR-301a to drug treatment: did not respond to drug treatment
  expression of the other seven inflammatory miRNAs: significant decrease towards healthy wild type levels
[2]
  binding to the GR: high affinity
[3]
  steroidal side effects in comparison to prednisone: avoids or has substantially reduced steroidal side effects in comparison to prednisone

Source: US12281304B2, “Compositions and methods for treating and preventing muscular disorders and dystrophies, steroid side effects, and inflammation” (Children's National Medical Center, priority 2018, dated 2025)
